According to patent publication US20120100130A1, “Novel Receptor Hetero-Dimers/-Oligomers” (DIMERIX BIOSCIENCE PTY LTD., priority 2009, published 2012):

How the values were obtained:
[1] = system: leukocyte infiltration; conditions: intraperitoneal AngII administration; cited from earlier work
[2] = system: AngII treated monocytes; conditions: cited from earlier work
[3] = target: T1, CCR2b (Rattus norvegicus, UniProt O55193); conditions: AngII and high salt diet, cited from earlier work
T1 construct: host or cells: whole animals (in vivo)
T1 sequence (O55193 1-373): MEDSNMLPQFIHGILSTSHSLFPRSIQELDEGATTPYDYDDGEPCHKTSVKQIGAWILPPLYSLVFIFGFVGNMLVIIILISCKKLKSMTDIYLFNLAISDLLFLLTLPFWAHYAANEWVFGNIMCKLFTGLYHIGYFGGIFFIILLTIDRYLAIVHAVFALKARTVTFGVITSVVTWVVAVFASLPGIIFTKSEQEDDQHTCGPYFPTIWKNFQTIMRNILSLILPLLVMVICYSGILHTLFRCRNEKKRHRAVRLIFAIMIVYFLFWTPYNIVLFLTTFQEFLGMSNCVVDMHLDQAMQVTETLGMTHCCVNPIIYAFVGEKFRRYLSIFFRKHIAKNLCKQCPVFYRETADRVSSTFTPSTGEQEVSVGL

[4] = system: AT1R; conditions: apolipoprotein E-deficient mice, cited from earlier work
[5] = system: glomerular endothelial cells; conditions: AngII treatment, rat glomerular endothelial cells; cited from earlier work
[6] = system: renal tissue; conditions: rats, 3 days of AngII treatment; cited from earlier work
[7] = system: renal cells and monocytes; conditions: cited from earlier work
[8] = target: T2, AT1R (Homo sapiens, UniProt P30556); assay: eBRET control, cells expressing AT1R/Rluc8 and barr2/Venus with pcDNA3; type: cell-based; conditions: 10^−7M MCP1; HEK293FT cells expressing AT1R/Rluc8 and barr2/Venus with pcDNA3
T2 construct: expressed in transfected cells; host or cells: HEK293FT
T2 sequence (P30556 1-359): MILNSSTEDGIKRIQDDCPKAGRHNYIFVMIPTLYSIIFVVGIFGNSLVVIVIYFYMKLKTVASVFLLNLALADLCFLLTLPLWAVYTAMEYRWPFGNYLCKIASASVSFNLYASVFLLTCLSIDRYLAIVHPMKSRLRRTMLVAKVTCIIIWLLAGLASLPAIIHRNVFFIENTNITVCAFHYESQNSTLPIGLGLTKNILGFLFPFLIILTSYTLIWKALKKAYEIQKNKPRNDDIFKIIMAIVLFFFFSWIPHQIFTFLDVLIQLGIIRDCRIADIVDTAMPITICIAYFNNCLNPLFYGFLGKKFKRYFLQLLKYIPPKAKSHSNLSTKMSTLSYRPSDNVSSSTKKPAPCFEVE
Protocol: (§1) HEK293FT cells were seeded in 6-well plates at a density of approximately 630,000 cells/well and maintained at 37° C., 5% CO2 in Complete Media (DMEM containing 0.3 mg/ml glutamine, 100 IU/ml penicillin and 100 μg/ml streptomycin (Gibco)) supplemented with 10% fetal calf serum (FCS; Gibco). Transient transfections were carried out 24 h after seeding using GeneJuice (Novagen) according to manufacturer instructions. 24 h post-transfection, cells were washed with PBS, detached using 0.05% trypsin/0.53 mM EDTA, resuspended in HEPES-buffered phenol red free Complete Media containing 5% FCS and added to a poly-L-lysine-coated white 96-well microplate (Nunc). 48 h post-transfection, eBRET assays were carried out following pre-incubation of cells with EnduRen™ (Promega) at a final concentration of 30 μM, at 37° C., 5% CO2 for 2 h. BRET measurements were taken at 37° C. using the Victor Light plate reader with Wallac 1420 software (Perkin-Elmer). Filtered light emissions were sequentially measured for 2 s in each of the ‘donor wavelength window’ (400-475 nm) and ‘acceptor wavelength window’ (520-540 nm).
The BRET signal observed between interacting proteins is normalized by subtracting the background BRET ratio. […]
In parallel, eBRET signals were measured from cells transiently expressing AT1R/Rluc8 and barr2/Venus with pcDNA3 following treatment with 10^−7M monocyte chemotactic protein-1 (MCP1).

[9] = target: T3, AT2R (Homo sapiens, UniProt P50052); assay: eBRET control, cells expressing AT2R/Rluc8 and barr2/Venus with pcDNA3; type: cell-based; conditions: 10^−7M MCP1; HEK293FT cells expressing AT2R/Rluc8 and barr2/Venus with pcDNA3
T3 construct: expressed in transfected cells; host or cells: HEK293FT
T3 sequence (P50052 1-363): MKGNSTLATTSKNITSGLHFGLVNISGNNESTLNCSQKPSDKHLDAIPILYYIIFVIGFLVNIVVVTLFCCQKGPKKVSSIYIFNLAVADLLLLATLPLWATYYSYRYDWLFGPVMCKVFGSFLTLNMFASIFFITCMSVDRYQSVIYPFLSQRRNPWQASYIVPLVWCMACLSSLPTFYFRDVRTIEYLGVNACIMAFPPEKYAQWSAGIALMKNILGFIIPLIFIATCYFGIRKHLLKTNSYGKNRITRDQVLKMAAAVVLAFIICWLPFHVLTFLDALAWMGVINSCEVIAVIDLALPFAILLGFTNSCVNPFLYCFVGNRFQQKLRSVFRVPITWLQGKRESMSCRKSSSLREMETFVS
Protocol: as §1
The BRET signal observed between interacting proteins is normalized by subtracting the background BRET ratio. […] In the following examples, the second calculation will be used and the signal is described as the ‘ligand-induced BRET ratio’.

CCCCc1nc(Cl)c(CO)n1Cc1ccc(-c2ccccc2-c2nn[nH]n2)cc1 [Losartan]
Leukocyte infiltration [1]: inhibited
AngII-mediated upregulation of MIP-1 and interleukin-8 chemokines [2]: inhibited

O=C1Nc2ccccc2C2(CCN(CCc3ccc(C(F)(F)F)cc3)CC2)O1 [RS102895]
BP ([3]; with versus without CCR2b antagonist): comparable
renal protection in hypertension [3]: protects the kidney in hypertension by reducing the inflammatory response

C[C@H](N[C@@H](CCc1ccccc1)C(=O)O)C(=O)N1[C@H](C(=O)O)C[C@@H]2CCC[C@@H]21 [Ramiprilat]
AngII-induced upregulation of MIP-1 [2]: suppressed

CCCCC1=NC2(CCCC2)C(=O)N1Cc1ccc(-c2ccccc2-c2nnn[nH]2)cc1 [irbesartan]
lesion size ([4]; after 12 weeks): reduced
levels of MCP-1 and MIP-1α mRNA expression [4]: significantly lower

angiotensin II (DRVYIHPF; Angiotensin-2; UniProt P01019 25-32, looked up) [AngII]
CC and CXC chemokine levels [1]: increase
mRNA and protein expression of the chemokine RANTES [5]: increase
renal expression of TNFα and MCP-1 [6]: increased

angiotensin III (RVYIHPF; Angiotensin-3; UniProt P01019 26-32, looked up) [AngIII]
MCP-1 mRNA and protein expression ([7]; AngIII treatment of renal cells and monocytes): increase
transcription factor NF-κB ([7]; AngIII treatment): activated

monocyte chemotactic protein-1 [MCP1]
ligand-induced BRET ratio [8]: did not result in an increase in ligand-induced BRET ratio
ligand-induced BRET ratio [9]: did not result in an increase in ligand-induced BRET ratio
